Values after ≈ are worked out from the molar mass of the structure shown. Values belong to the compound of their own block, whether it stands above or below them. Active and inactive are the calls of the source. The rule behind the calls is not given here.
Experiments:
HCT-116 [1] = assay: cells; settings: Homo sapiens, HCT-116, 72 h
Description: Antiproliferative activity against human HCT116 cells after 72 hrs by MTS assay

[2] = Inhibition of sheep brain tubulin polymerization by DAPI-fluorescence based fluorimetry; parameters: species or system Ovis aries
U-87 MG = assay: Antiproliferative activity against human U87MG cells after 72 hrs by MTS assay; type: functional, cell-based, U-87MG ATCC
HCT-116 [3] = assay: Induction of cell cycle arrest in human HCT116 cells assessed as accumulation at G2M phase at 10 nM after 24 hrs by propidium iodide staining based flow cytometry relative to control; type: functional
[4] = Drug metabolism in rat liver microsomes assessed as cytochrome P450-mediated 3-(1-(2-methylquinolin-4-yl)vinyl)-9H-carbazole metabolite formation at 100 uM after 6 hrs in presence of NADPH generating system by HPLC-UV-MS analysis; type: ADME
[5] = Lipophilicity, log P of the compound after 24 hrs by HPLC analysis; type: physicochemical
K562 = assay: cells; settings: Homo sapiens, K562, 72 h
K-562R [6] = assay: Potency index, ratio of iso-CA-4 IC50 to compound IC50 for antiproliferative activity against human K562R cells; type: functional
K-562R [7] = assay: Antiproliferative activity against human K562R cells after 72 hrs by MTS assay; type: functional, cell-based
[8] = Aqueous solubility of the compound in phosphate buffer at pH 7.4 after 4 hrs by HPLC-UV analysis; type: physicochemical
[9] = Metabolic stability in human liver microsomes assessed as parent compound at 100 uM up to […] in presence of NADPH generating system by HPLC-MS/MS analysis; type: ADME, Microsome
[10] = Drug metabolism in rat liver microsomes assessed as cytochrome P450-mediated hydroxylated metabolite formation at 100 uM after 6 hrs in presence of NADPH generating system by HPLC-UV-MS analysis; type: ADME
HT-29 = assay: cells; settings: Homo sapiens, HT-29, 72 h
Description: Antiproliferative activity against human HT-29 cells after 72 hrs by MTS assay

Cytochrome P450 [11] = assay: Drug metabolism in human liver microsomes assessed as cytochrome P450-mediated N-demethylated metabolite formation at 100 uM after 6 hrs in presence of NADPH generating system by HPLC-UV-MS analysis; type: ADME
HUVEC [12] = assay: cells; settings: Homo sapiens, 72 h
Description: Antiproliferative activity against HUVEC after 72 hrs by MTS assay

HUVEC [13] = assay: Antiangiogenic activity in HUVEC assessed as disorganization of the vasculature network at 10 nM after 6 hrs by matrigel assay; type: functional, cell-based; settings: Homo sapiens
[14] = Drug metabolism in rat liver microsomes assessed as cytochrome P450-mediated N-demethylated metabolite formation at 100 uM after 6 hrs in presence of NADPH generating system by HPLC-UV-MS analysis; type: ADME
[15] = Metabolic stability in rat liver microsomes assessed as parent compound at 100 uM up to […] in presence of NADPH generating system by HPLC-MS/MS analysis; type: ADME, Microsome
A549 [16] = assay: cells; settings: Homo sapiens, A549, 72 h
Description: Antiproliferative activity against human A549 cells after 72 hrs by MTS assay

HUVEC [17] = assay: Antiangiogenic activity in HUVEC assessed as inhibition of tube formation after 2 to 6 hrs by matrigel assay; type: functional, cell-based; settings: Homo sapiens
Cytochrome P450 [18] = assay: Drug metabolism in human liver microsomes assessed as cytochrome P450-mediated 3-(1-(2-methylquinolin-4-yl)vinyl)-9H-carbazole metabolite formation at 100 uM after 6 hrs in presence of NADPH generating system by HPLC-UV-MS analysis; type: ADME
Cytochrome P450 [19] = assay: Drug metabolism in human liver microsomes assessed as cytochrome P450-mediated hydroxylated metabolite formation at 100 uM after 6 hrs in presence of NADPH generating system by HPLC-UV-MS analysis; type: ADME
A549 [20] = assay: Potency index, ratio of CA-4 IC50 to compound IC50 for antiproliferative activity against human A549 cells; type: functional
K-562R [21] = assay: Potency index, ratio of CA-4 IC50 to compound IC50 for antiproliferative activity against human K562R cells; type: functional
HUVEC [22] = assay: Antiangiogenic activity in HUVEC assessed as disorganization of the vasculature network at 50 nM after 2 hrs by matrigel assay; type: functional, cell-based; settings: Homo sapiens
HCT-116 [23] = assay: Induction of cell cycle arrest in human HCT116 cells assessed as accumulation at G2M phase after 24 hrs by propidium iodide staining based flow cytometry; type: functional
[24] = Drug level in rat liver microsomes treated with isocombratestatin-A4 assessed as CYP450-mediated compound metabolism at 100 uM after 6 hrs in presence of NADPH generating system by HPLC-UV-MS analysis; type: ADME
Cytochrome P450 [25] = assay: Drug level in human liver microsomes treated with isocombratestatin-A4 assessed as CYP450-mediated compound metabolism at 100 uM after 6 hrs in presence of NADPH generating system by HPLC-UV-MS analysis; type: ADME
Cytochrome P450 [26] = assay: Drug metabolism in human liver microsomes assessed as cytochrome P450-mediated 4-(1-(3-hydroxy-4-methoxyphenyl)vinyl)-2,6-dimethoxyphenol metabolite formation at 100 uM after 6 hrs in presence of NADPH generating system by HPLC-UV-MS analysis; type: ADME
[27] = Drug metabolism in rat liver microsomes assessed as cytochrome P450-mediated 2-methoxy-5-(1-(3,4,5-trimethoxyphenyl)vinyl)cyclohexa-2,5-diene-1,4-dione metabolite formation at 100 uM after 6 hrs in presence of NADPH generating system by HPLC-UV-MS analysis; type: ADME
Cytochrome P450 [28] = assay: Drug metabolism in human liver microsomes assessed as cytochrome P450-mediated 2-methoxy-5-(1-(3,4,5-trimethoxyphenyl)vinyl)cyclohexa-2,5-diene-1,4-dione metabolite formation at 100 uM after 6 hrs in presence of NADPH generating system by HPLC-UV-MS analysis; type: ADME
[29] = Drug metabolism in rat liver microsomes assessed as cytochrome P450-mediated 4-(1-(3-hydroxy-4-methoxyphenyl)vinyl)-2,6-dimethoxyphenol metabolite formation at 100 uM after 6 hrs in presence of NADPH generating system by HPLC-UV-MS analysis; type: ADME
[30] = Drug metabolism in rat liver microsomes assessed as cytochrome P450-mediated 6-(1-(3-hydroxy-4-methoxyphenyl)vinyl)-2,3,4-trimethoxyphenol metabolite formation at 100 uM after 6 hrs in presence of NADPH generating system by HPLC-UV-MS analysis; type: ADME
Cytochrome P450 [31] = assay: Drug metabolism in human liver microsomes assessed as cytochrome P450-mediated O-demethylated metabolite formation at 100 uM after 6 hrs in presence of NADPH generating system by HPLC-UV-MS analysis; type: ADME
[32] = Drug metabolism in rat liver microsomes assessed as cytochrome P450-mediated O-demethylated metabolite formation at 100 uM after 6 hrs in presence of NADPH generating system by HPLC-UV-MS analysis; type: ADME
Cytochrome P450 [33] = assay: Drug metabolism in human liver microsomes assessed as cytochrome P450-mediated 6-(1-(3-hydroxy-4-methoxyphenyl)vinyl)-2,3,4-trimethoxyphenol metabolite formation at 100 uM after 6 hrs in presence of NADPH generating system by HPLC-UV-MS analysis; type: ADME
[34] = Drug level in rat liver microsomes treated with 9-Methyl-3-(1-(2-methylquinolin-4-yl)vinyl)-9H-carbazole assessed as CYP450-mediated compound metabolism at 100 uM after 6 hrs in presence of NADPH generating system by HPLC-UV-MS analysis; type: ADME
Cytochrome P450 [35] = assay: Drug level in human liver microsomes treated with 9-Methyl-3-(1-(2-methylquinolin-4-yl)vinyl)-9H-carbazole assessed as CYP450-mediated compound metabolism at 100 uM after 6 hrs in presence of NADPH generating system by HPLC-UV-MS analysis; type: ADME

SMILES: C=C(c1ccc2c(c1)c1ccccc1n2C)c1cc(C#N)nc2ccccc12
IC50 (HCT-116 [1]): 12 nM | IC50 [2]: 3600 nM

SMILES: C=C(c1cc(OC)c(OC)c(OC)c1)c1ccc2c(c1)c1ccccc1n2C
IC50 (HCT-116 [1]): 15 nM | IC50 [2]: 3000 nM

SMILES: C=C(C1=CC(=O)C(OC)=CC1=O)c1cc(OC)c(OC)c(OC)c1
Drug metabolism [24]: Metabolite_Detected | Drug metabolism (Cytochrome P450 [25]): Metabolite_Detected

SMILES: C=C(c1ccnc(C)c1)c1ccc2c(c1)c1ccccc1n2C
IC50 (HCT-116 [1]): 19 nM | IC50 [2]: 6200 nM

SMILES: C=C(c1ccc2c(c1)c1cc(F)ccc1n2C)c1cn(C)c(=O)n(C)c1=O
IC50 (HCT-116 [1]): 300 nM

SMILES: COc1ccc(/C=C\c2cc(OC)c(OC)c(OC)c2)cc1O [COMBRETASTATIN A4]
IC50 (U-87 MG): 4 nM | Drug metabolism (Cytochrome P450 [26]): Metabolite_Detected | IC50 (HCT-116 [1]): 2.2 nM | Drug metabolism [27]: Metabolite_Detected | IC50 (K562): 5 nM | IC50 [2]: 2200 nM | Drug metabolism (Cytochrome P450 [28]): Metabolite_Detected | Drug metabolism [29]: Metabolite_Detected | IC50 (HT-29): > 8000 nM | IC50 (HUVEC [12]): 1.7 nM | IC50 (A549 [16]): 200 nM

SMILES: C=C(c1ccc(OC)c(O)c1)c1cc(OC)c(OC)c(OC)c1O
Drug metabolism [24]: Metabolite_Detected | Drug metabolism (Cytochrome P450 [25]): Metabolite_Detected

SMILES: C=C(c1ccc(OC)c(O)c1)c1cc(OC)c(OC)c(OC)c1
IC50 (U-87 MG): 8.2 nM | Drug metabolism [30]: Metabolite_Detected | logP ([5]; 24 h): 3.25 | IC50 (K562): 2 nM | IC50 (K-562R [7]): 3 nM | IC50 [2]: 2100 nM | Drug metabolism (Cytochrome P450 [31]): Metabolite_Detected | solubility at 4 h [8]: 11.6 µg/mL (≈ 36.7 µM) | Drug metabolism [10]: Metabolite_Detected | IC50 (HT-29): 265 nM | Drug metabolism (Cytochrome P450 [11]): Metabolite_Detected | IC50 (HUVEC [12]): 2 nM | Drug metabolism [14]: Metabolite_Detected | IC50 (A549 [16]): 8 nM | Drug metabolism [32]: Metabolite_Detected | Drug metabolism (Cytochrome P450 [19]): Metabolite_Detected | Drug metabolism (Cytochrome P450 [33]): Metabolite_Detected

SMILES: C=C(c1ccc2[nH]c3ccccc3c2c1)c1cc(C)nc2ccccc12
Drug metabolism [34]: Metabolite_Detected | Drug metabolism (Cytochrome P450 [35]): Metabolite_Detected

More lines, main results first:

IC50 (U-87 MG): 1.9 nM | Drug metabolism [4]: Metabolite_Detected | IC50 (HCT-116 [1]): 2 nM | logP at 24 h [5]: 5.29 | IC50 (K562): 2 nM | IC50 (K-562R [7]): 0.9 nM | IC50 [2]: 2000 nM | solubility at 4 h [8]: 0.42 µg/mL (≈ 1.21 µM) | Stability [9]: Stable | Drug metabolism [10]: Metabolite_Detected | IC50 (HT-29): 3 nM | Drug metabolism (Cytochrome P450 [11]): Metabolite_Detected | Drug metabolism [14]: Metabolite_Detected | Stability [15]: Stable | IC50 (A549 [16]): 3 nM | Drug metabolism (Cytochrome P450 [18]): Metabolite_Detected | Drug metabolism (Cytochrome P450 [19]): Metabolite_Detected
SMILES: C=C(c1ccc2c(c1)c1ccccc1n2C)c1cc(C)nc2ccccc12
Activity (HCT-116 [3]): >90% | Ratio IC50 (K-562R [6]): 3 | IC50 (HUVEC [12]): 0.81 nM | Activity (HUVEC [13]): Active | Activity (HUVEC [17]): Dose-dependent effect | Ratio IC50 (A549 [20]): 67 | Ratio IC50 (K-562R [21]): 27 | Activity (HUVEC [22]): Active | Activity (HCT-116 [23]): Dose-dependent effect

IC50 (HCT-116 [1]): 40 nM | IC50 [2]: 2100 nM
SMILES: C=C(c1ccc2c(c1)c1ccccc1n2C)c1nc(C)nc2ccccc12

IC50 (HCT-116 [1]): 195 nM
SMILES: C=C(c1ccc2c(c1)c1ccccc1n2C)c1cn(C)c(=O)n(C)c1=O

logP at 24 h [5]: 2.37 | solubility at 4 h [8]: 3.11 µg/mL (≈ 10.1 µM) | Drug metabolism [10]: Metabolite_Detected | Drug metabolism (Cytochrome P450 [11]): Metabolite_Detected | Drug metabolism [14]: Metabolite_Detected | Drug metabolism (Cytochrome P450 [19]): Metabolite_Detected
SMILES: C=C(c1ccc2c(ccn2C)c1)c1cc(C#N)nc2ccccc12

IC50 (U-87 MG): 31.6 nM | IC50 (HCT-116 [1]): 3.8 nM | logP at 24 h [5]: 5.2 | IC50 (K562): 1.82 nM | IC50 (K-562R [7]): 0.84 nM | IC50 [2]: 3700 nM | solubility at 4 h [8]: 0.54 µg/mL (≈ 2.06 µM) | Drug metabolism [10]: Metabolite_Detected | Drug metabolism (Cytochrome P450 [11]): Metabolite_Detected | Drug metabolism [14]: Metabolite_Detected | IC50 (A549 [16]): 61.9 nM | Drug metabolism (Cytochrome P450 [19]): Metabolite_Detected
SMILES: C=C(c1cc(C)nc(C)c1)c1ccc2c(ccn2C)c1
IC50 (HUVEC [12]): 0.9 nM

Drug metabolism [24]: Metabolite_Detected | Drug metabolism (Cytochrome P450 [25]): Metabolite_Detected
SMILES: C=C(c1ccc(OC)c(O)c1)c1cc(OC)c(O)c(OC)c1

Source: ChEMBL document CHEMBL4330077, “1,1-Diheterocyclic Ethylenes Derived from Quinaldine and Carbazole as New Tubulin-Polymerization Inhibitors: Synthesis, Metabolism, and Biological Evaluation” (J Med Chem, 2019)
